Reference: article PMC4414684 (Chemico-biological interactions, 2014)

Biological target: T1, IKKβ (Homo sapiens, UniProt O14920)
T1 sequence (O14920 1-756): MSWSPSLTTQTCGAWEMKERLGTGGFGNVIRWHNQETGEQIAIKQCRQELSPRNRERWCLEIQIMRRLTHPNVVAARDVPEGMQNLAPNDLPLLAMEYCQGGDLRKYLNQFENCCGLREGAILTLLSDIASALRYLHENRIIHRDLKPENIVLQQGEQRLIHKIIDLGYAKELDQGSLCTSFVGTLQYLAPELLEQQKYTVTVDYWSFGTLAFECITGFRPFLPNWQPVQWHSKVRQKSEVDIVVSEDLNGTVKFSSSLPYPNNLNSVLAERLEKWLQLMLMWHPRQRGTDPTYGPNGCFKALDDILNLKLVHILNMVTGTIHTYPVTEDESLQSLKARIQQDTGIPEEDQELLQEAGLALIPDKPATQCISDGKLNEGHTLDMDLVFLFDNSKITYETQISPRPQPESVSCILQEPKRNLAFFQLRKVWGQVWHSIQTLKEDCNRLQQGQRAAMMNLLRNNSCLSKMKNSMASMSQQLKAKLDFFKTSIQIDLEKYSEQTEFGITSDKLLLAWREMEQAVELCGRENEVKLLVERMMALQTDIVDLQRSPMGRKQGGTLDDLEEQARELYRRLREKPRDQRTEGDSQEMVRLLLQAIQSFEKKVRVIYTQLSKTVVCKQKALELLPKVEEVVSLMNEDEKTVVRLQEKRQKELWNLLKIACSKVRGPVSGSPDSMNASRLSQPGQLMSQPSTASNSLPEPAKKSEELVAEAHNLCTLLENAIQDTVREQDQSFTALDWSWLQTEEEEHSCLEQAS
Type: biochemical
Conditions: read-out: % inhibition at 100 μM

inhibition at 100 µM: > 50%
SMILES: CCCCCC(=O)/C=C/C=C\C/C=C\C/C=C\CCCC(=O)O [15-oxoETE]
